Counter-ions that a name gives are not always drawn.
Tested on: apamin-sensitive sites of the SK channels
Assay: Competition binding between 125I-apamin and bis-tetrahydroisoquinoline derivatives on rat cortical synaptosomes
Settings: for % of 125I-apamin displaced at 10 μM: 10 μM compound, ±10 pM 125I-apamin, rat cortical synaptosomes, 1 h at 0° C.; for Ki / potential to interact with apamin-sensitive sites compared with NML: comparison in words with N-Methyl-Laudanosine; for Ki: separated stereoisomers, rat cortical apamin sensitive sites, 125I-apamin
Procedure: These experiments are used to evaluate the potency of the bis-tetrahydroisoquinoline derivatives to interact with the apamin-sensitive sites of the SK channels, the selected target for which a blockade is expected to be useful in the treatment of Alzheimer's disease, Parkinson's disease, schizophrenia, cognitive dysfunction, or depression. Two reference compounds are also tested for comparison
Rats (male Wistar, ±250 g) were killed by decapitation and the brains were quickly removed and kept on ice during dissection. Crude cortex was dispersed in 0.32 M sucrose by using a Pottero homogenizer. After a first centrifugation at 1500×g for 10 min, the supernatant was centrifuged at 25000×g for 10 min. The resulting pellet was dispersed in 5 mL 0.32 M sucrose to be aliquoted. Protein concentration was determined by the method of Hartree with bovine serum albumin as a standard.^36
The buffer consisted of a 10 mM Tris-HCl (pH 7.5) solution containing 5.4 mM KCl and 0.1% bovine serum albumin. The radioligand was ^125I-apamin (Perkin-Elmer, Specific activity 81.4 TBq mmol^−1). Glass fibre filters (Whatman GF/C) used in these experiments were coated for 1 h in 0.5% polyethylenimine and then washed with 2.5 mL of the ice-cold buffer just before use. Binding experiments were always terminated as follows. Aliquots were filtered under reduced pressure through Whatman filters. Filters were rapidly washed twice with 2.5 mL of buffer. The radioactivity remaining on the filter was evaluated with a Packard Tri-Carb 1600TR liquid scintillation analyser with an efficacy of 69%. ^125I-apamin binding to the filters was also estimated in the absence of synaptosomes. This binding was also substracted from the total binding. Curve fitting was carried out using GraphPad Prism.
Saturation Binding Experiments—Synaptosomes (0.2 mg of protein/mL) were incubated with increasing concentrations of ^125I-apamin (25 μL) with 975 μL of incubation buffer for 1 h at 0° C. Samples were then filtered on Whatman GF/C filter and the radioactivity was measured as described above. Non specific binding was determined in parallel experiments in the presence of an excess of unlabeled apamin (0.1 μM) and subtracted from the total binding to obtain the specific binding.
Competition Experiments between ^125I-apamin and Bis-tetrahydroisoquinoline derivatives—Synaptosomes (0.2 mg of protein/mL) were incubated for 1 h at 0° C. with ±10 pM of ^125I-apamin (25 μL) and nine concentrations of bis-tetrahydroisoquinoline derivatives (10^−4 to 10^−7 M). Non specific binding was determined in the presence of an excess of unlabeled apamin (0.1 μM). Samples were then filtered on Whatman filter and the radioactivity was measured as described above.

## CN1CCc2ccccc2C1CCCC1c2ccccc2CCN1C.Cl (stereo not shown) [Compound 4a, 1,3-bis[1-(2-methyl-1,2,3,4-tetrahydrolisoquinolyl)]-propane hydrochloride]
  % of 125I-apamin displaced at 10 μM: 13%

## CN1CCc2ccccc2C1CCCCC1c2ccccc2CCN1C.Cl (stereo not shown) [Compound 4b, 1,4-bis[1-(2-methyl-1,2,3,4-tetrahydroisoquinolyl)]-butane hydrochloride]
  % of 125I-apamin displaced at 10 μM: 16%

## CN1CCc2ccccc2C1CCCCCC1c2ccccc2CCN1C.Cl (stereo not shown) [Compound 4c, 1,5-bis[1-(2-methyl-1,2,3,4-tetrahydroisoquinolyl)]-pentane hydrochloride]
  % of 125I-apamin displaced at 10 μM: 9%

## COc1cc2c(cc1OC)C(CCCC1c3cc(OC)c(OC)cc3CCN1C)N(C)CC2 (stereo not shown) [Compound 4d E1, 1,3-bis[1-(6,7-dimethoxy-2-methyl-1,2,3,4-tetrahydroisoquinolyl)]-propane hydrochloride]
  Ki / potential to interact with apamin-sensitive sites compared with NML: Ki superior to NML
Comparison in words with dequalinium
  Ki compared with dequalinium: Ki quite similar to dequalinium
Listed as 4d E1, hydrochloride
  Ki: 293 ± 22 nM

## COc1cc2c(cc1OC)C(CCCC1c3cc(OC)c(OC)cc3CCN1C)N(C)CC2 (stereo not shown) [Compound 4d E2, 1,3-bis[1-(6,7-dimethoxy-2-methyl-1,2,3,4-tetrahydroisoquinolyl)]-propane hydrochloride]
Listed as 4d E2, hydrochloride
  Ki: 1880 ± 105 nM

## COc1cc2c(cc1OC)[C@@H](CCC[C@H]1c3cc(OC)c(OC)cc3CCN1C)N(C)CC2 [Compound 4d MESO, 1,3-bis[1-(6,7-dimethoxy-2-methyl-1,2,3,4-tetrahydroisoquinolyl)]-propane hydrochloride]
  Ki: 1420 ± 116 nM

## COc1cc2c(cc1OC)C(CCCC1c3cc(OC)c(OC)cc3CCN1C)N(C)CC2.Cl (stereo not shown) [Compound 4d, 1,3-bis[1-(6,7-dimethoxy-2-methyl-1,2,3,4-tetrahydroisoquinolyl)]-propane hydrochloride]
  % of 125I-apamin displaced at 10 μM: 82%

## COc1cc2c(cc1OC)C(CCCCC1c3cc(OC)c(OC)cc3CCN1C)N(C)CC2.Cl (stereo not shown) [Compound 4e E1, 1,4-bis[1-(6,7-dimethoxy-2-methyl-1,2,3,4-tetrahydroisoquinolyl)]-butane hydrochloride]
  Ki / potential to interact with apamin-sensitive sites compared with NML: Ki superior to NML
Listed as 4e E1, hydrochloride
  Ki: 588 ± 72 nM

## COc1cc2c(cc1OC)C(CCCCC1c3cc(OC)c(OC)cc3CCN1C)N(C)CC2 (stereo not shown) [Compound 4e E2, 1,4-bis[1-(6,7-dimethoxy-2-methyl-1,2,3,4-tetrahydroisoquinolyl)]-butane hydrochloride]
Listed as 4e E2, hydrochloride
  Ki: 1200 ± 114 nM

## COc1cc2c(cc1OC)C(CCCCC1c3cc(OC)c(OC)cc3CCN1C)N(C)CC2 (stereo not drawn) [Compound 4e MESO, 1,4-bis[1-(6,7-dimethoxy-2-methyl-1,2,3,4-tetrahydroisoquinolyl)]-butane hydrochloride]
Listed as 4e MESO, hydrochloride
  Ki: 1070 ± 124 nM

## COc1cc2c(cc1OC)C(CCCCC1c3cc(OC)c(OC)cc3CCN1C)N(C)CC2.Cl (stereo not shown) [Compound 4e, 1,4-bis[1-(6,7-dimethoxy-2-methyl-1,2,3,4-tetrahydroisoquinolyl)]-butane hydrochloride]
  % of 125I-apamin displaced at 10 μM: 72%

## COc1cc2c(cc1OC)C(CCCCCC1c3cc(OC)c(OC)cc3CCN1C)N(C)CC2.Cl (stereo not shown) [Compound 4f E1, 1,5-bis[1-(6,7-dimethoxy-2-methyl-1,2,3,4-tetrahydroisoquinolyl)]-pentane hydrochloride]
  Ki / potential to interact with apamin-sensitive sites compared with NML: Ki superior to NML
Listed as 4f E1, hydrochloride
  Ki: 592 ± 14 nM

## COc1cc2c(cc1OC)C(CCCCCC1c3cc(OC)c(OC)cc3CCN1C)N(C)CC2 (stereo not shown) [Compound 4f E2, 1,5-bis[1-(6,7-dimethoxy-2-methyl-1,2,3,4-tetrahydroisoquinolyl)]-pentane hydrochloride]
Listed as 4f E2, hydrochloride
  Ki: 1300 ± 39 nM

## COc1cc2c(cc1OC)C(CCCCCC1c3cc(OC)c(OC)cc3CCN1C)N(C)CC2 (stereo not drawn) [Compound 4f MESO, 1,5-bis[1-(6,7-dimethoxy-2-methyl-1,2,3,4-tetrahydroisoquinolyl)]-pentane hydrochloride]
Listed as 4f MESO, hydrochloride
  Ki: 731 ± 63 nM

## COc1cc2c(cc1OC)C(CCCCCC1c3cc(OC)c(OC)cc3CCN1C)N(C)CC2.Cl (stereo not shown) [Compound 4f, 1,5-bis[1-(6,7-dimethoxy-2-methyl-1,2,3,4-tetrahydroisoquinolyl)]-pentane hydrochloride]
  % of 125I-apamin displaced at 10 μM: 78%

## COc1cc2c(c(OC)c1OC)C(CCCC1c3c(cc(OC)c(OC)c3OC)CCN1C)N(C)CC2 (stereo not shown) [Compound 4g E1, 1,3-bis[1-(6,7,8-trimethoxy-2-methyl-1,2,3,4-tetrahydroisoquinolyl)]-propane hydrochloride]
Listed as 4g E1, hydrochloride
  Ki: 1740 ± 195 nM

## COc1cc2c(c(OC)c1OC)C(CCCC1c3c(cc(OC)c(OC)c3OC)CCN1C)N(C)CC2 (stereo not shown) [Compound 4g E2, 1,3-bis[1-(6,7,8-trimethoxy-2-methyl-1,2,3,4-tetrahydroisoquinolyl)]-propane hydrochloride]
Listed as 4g E2, hydrochloride
  Ki: 1100 ± 103 nM

## COc1cc2c(c(OC)c1OC)[C@@H](CCC[C@H]1c3c(cc(OC)c(OC)c3OC)CCN1C)N(C)CC2 [Compound 4g MESO, 1,3-bis[1-(6,7,8-trimethoxy-2-methyl-1,2,3,4-tetrahydroisoquinolyl)]-propane hydrochloride]
  Ki: 1670 ± 77 nM

## COc1cc2c(c(OC)c1OC)C(CCCC1c3c(cc(OC)c(OC)c3OC)CCN1C)N(C)CC2.Cl (stereo not shown) [Compound 4g, 1,3-bis[1-(6,7,8-trimethoxy-2-methyl-1,2,3,4-tetrahydroisoquinolyl)]-propane hydrochloride]
  % of 125I-apamin displaced at 10 μM: 70%

## COc1cc2c(c(OC)c1OC)C(CCCCC1c3c(cc(OC)c(OC)c3OC)CCN1C)N(C)CC2 (stereo not shown) [Compound 4h E1, 1,4-bis[1-(6,7,8-trimethoxy-2-methyl-1,2,3,4-tetrahydroisoquinolyl)]-butane hydrochloride]
Listed as 4h E1, hydrochloride
  Ki: 2210 ± 156 nM

## COc1cc2c(c(OC)c1OC)C(CCCCC1c3c(cc(OC)c(OC)c3OC)CCN1C)N(C)CC2 (stereo not shown) [Compound 4h E2, 1,4-bis[1-(6,7,8-trimethoxy-2-methyl-1,2,3,4-tetrahydroisoquinolyl)]-butane hydrochloride]
Listed as 4h E2, hydrochloride
  Ki: 746 ± 136 nM

## COc1cc2c(c(OC)c1OC)C(CCCCC1c3c(cc(OC)c(OC)c3OC)CCN1C)N(C)CC2.Cl (stereo not drawn) [Compound 4h MESO, 1,4-bis[1-(6,7,8-trimethoxy-2-methyl-1,2,3,4-tetrahydroisoquinolyl)]-butane hydrochloride]
  Ki / potential to interact with apamin-sensitive sites compared with NML: Ki superior to NML
Listed as 4h MESO, hydrochloride
  Ki: 424 ± 33 nM

## COc1cc2c(c(OC)c1OC)C(CCCCC1c3c(cc(OC)c(OC)c3OC)CCN1C)N(C)CC2.Cl (stereo not shown) [Compound 4h, 1,4-bis[1-(6,7,8-trimethoxy-2-methyl-1,2,3,4-tetrahydroisoquinolyl)]-butane hydrochloride]
  % of 125I-apamin displaced at 10 μM: 86%

## COc1cc2c(cc1OC)C(Cc1cccc(CC3c4cc(OC)c(OC)cc4CCN3C)c1)N(C)CC2 (stereo not shown) [Compound 4m E1]
Listed as 4m E1
  Ki: 1280 ± 55 nM

## COc1cc2c(cc1OC)C(Cc1cccc(CC3c4cc(OC)c(OC)cc4CCN3C)c1)N(C)CC2 (stereo not shown) [Compound 4m E2]
Listed as 4m E2
  Ki: 1020 ± 27 nM

## COc1cc2c(cc1OC)C(Cc1ccc(CC3c4cc(OC)c(OC)cc4CCN3C)cc1)N(C)CC2 (stereo not shown) [Compound 4n E1]
Listed as 4n E1
  Ki: 1010 ± 144 nM

## COc1cc2c(cc1OC)C(Cc1ccc(CC3c4cc(OC)c(OC)cc4CCN3C)cc1)N(C)CC2 (stereo not shown) [Compound 4n E2]
Listed as 4n E2
  Ki: 1120 ± 46 nM

## COc1cc2c(cc1OC)[C@@H](Cc1ccc(C[C@H]3c4cc(OC)c(OC)cc4CCN3C)cc1)N(C)CC2 [Compound 4n MESO]
  Ki: 566 ± 26 nM

## COc1cc2c(cc1OC)C(Cc1ccc(CC3c4cc(OC)c(OC)cc4CCN3C)cc1)N(C)CC2 (stereo not shown) [Compound 4o, p-bis[1-(6,7-dimethoxy-2-methyl-1,2,3,4-tetrahydroisoquinolyl)]-xylene]
  % of 125I-apamin displaced at 10 μM: 90%
